Laboratory results: patent US7534915B2, “Non-symmetrical gelling agent” (Applied Nanosystems B.V., priority 2003, dated 2009)
Each block holds one compound with its values, some of them ahead of it.

Test: Gel test (vial inversion)
Assay type: physicochemical
Protocol: A weighed amount of solid was dissolved in 0.5 or 1 ml of the solvent in a closed 2.0 ml vial using a heating gun or a heating block and subsequently slowly cooled to room temperature by standing in the air. Gelation was determined by turning the vial upside down and gentle shaking. If no flow of the mass was observed, the mass was defined to be a gel. Alternatively, a weighed amount of solid was dissolved in 1 mL of solvent by the addition of acid or base. The subsequent addition of base or acid then gave gelation. Alternatively, a weighed amount of solid was dissolved in a small amount of solvent. The subsequent addition of a large amount of non-solvent then gave gelation. Alternatively, the solution of gelator/thickener was added to the non-solvent, resulting in gelation. Alternatively, a weighed amount of solid was mixed with 1 mL of solvent by sonication. After stopping the sonication, gelation occurred. Alternatively a weighed amount of solid was mixed with 1 mL of solvent by brief vortexing after which gelation occurred. Alternatively a weighed amount of solid was mixed with 1 mL of solvent after which gelation occurred.

[1] = PEG 400 (printed PEG for compound 20)

SMILES: CSCC[C@H](NC(=O)[C@@H]1C[C@H](C(=O)NCc2ccncc2)C[C@H](C(=O)NCc2ccncc2)C1)C(=O)Nc1ccc2ccccc2c1 [Compound 6, CHex(AmMet-AmβNA)(AmCH2Pyr)2]
Gel test (1 mg/mL in H2O): slightly turbid gel

SMILES: O=C(NCCOCCO)[C@@H]1C[C@H](C(=O)NCCOCCO)C[C@H](C(=O)N[C@@H](Cc2ccccc2)C(=O)Nc2ccc([N+](=O)[O-])cc2)C1 [Compound 14, CHex(AmPheAmPhNO2)(AmEtOEtOH)2]
Gel test (H2O, concentration not given): yellow, weak gel
Stability upon heating in water (heating in water, yellow color (p-NA) observed): hydrolysis of the PheAmPhNO2 amide takes place

SMILES: O=C(O)[C@H]1C[C@@H](C(=O)N[C@@H](Cc2ccccc2)C(=O)Nc2ccc3ccccc3c2)C[C@@H](C(=O)N[C@@H](Cc2ccccc2)C(=O)Nc2ccc3ccccc3c2)C1 [Compound 34, CHex(AmPheAmβNA)2(COOH)]
Gel test (H2O, concentration not given): gel
Gel test (H2O/t-BuOH (TBA/H2O) mixtures): gel

SMILES: O=C(CNC(=O)[C@H](Cc1ccccc1)NC(=O)[C@@H]1C[C@H](C(=O)O)C[C@H](C(=O)O)C1)Nc1ccc2ccccc2c1 [Compound 27, CHex(AmPheAmGlyAmβNA)(COOH)2]
Gel test (H2O, concentration not given): gel

SMILES: NC(=O)CC[C@H](NC(=O)[C@@H]1C[C@H](C(=O)O)C[C@H](C(=O)N[C@@H](CCC(N)=O)C(=O)Nc2ccc3ccccc3c2)C1)C(=O)Nc1ccc2ccccc2c1 [Compound 38, CHex(AmGlnAmβNA)2(COOH)]
Gel test (H2O, concentration not given): gel

SMILES: O=C(O)[C@@H]1C[C@H](C(=O)O)C[C@H](C(=O)N[C@@H](Cc2ccccc2)C(=O)NCCc2ccccc2)C1 [Compound 25, CHex(AmPheAmEtPh)(COOH)2]
Gel test (H2O, concentration not given): gel
Gel test (toluene): gel

SMILES: O=C(O)[C@H]1C[C@@H](C(=O)N[C@@H](CO)C(=O)Nc2ccc3ccccc3c2)C[C@@H](C(=O)N[C@@H](CO)C(=O)Nc2ccc3ccccc3c2)C1 [Compound 36, CHex(AmSerAmβNA)2(COOH)]
Gel test (DMSO/CH2Cl2 mixtures): gel
Gel test (DMSO/EtOH mixtures): gel
Gel test (DMSO/H2O mixtures): gel
Gel test (DMSO/MeCN mixtures): gel
Gel test (DMSO/toluene mixtures): gel
Gel test (H2O, concentration not given): gel
Gel test (H2O/t-BuOH (TBA/H2O) mixtures): gel
Gel test (MeCN): weak gel

SMILES: O=C(NCCOCCO)[C@@H]1C[C@H](C(=O)NCCOCCO)C[C@H](C(=O)N[C@@H](Cc2ccccc2)C(=O)NC2CCCCC2)C1 [Compound 18, CHex(AmPheAmCHex)(AmEtOEtOH)2]
Gel test (2 mg/mL in H2O): clear gel
Gel test (20 mg/mL in DMSO): turbid gel

SMILES: O=C(NCCOCCO)[C@@H]1C[C@H](C(=O)NCCOCCO)C[C@H](C(=O)N[C@@H](Cc2ccccc2)C(=O)Nc2ccc3ccccc3c2)C1 [Compound 2, CHex(AmPhe-AmβNA)(AmEtOEtOH)2]
Gel test (1 mg/mL in H2O): clear gel

SMILES: CCCC[C@H](NC(=O)[C@@H]1C[C@H](C(=O)O)C[C@H](C(=O)N[C@@H](CCCC)C(=O)O)C1)C(=O)O [Compound 32, CHex(AmNleOH)2(COOH)]
Gel test (H2O, concentration not given): gel

SMILES: COC(=O)[C@H](Cc1ccccc1)NC(=O)[C@@H]1C[C@H](C(=O)N[C@@H](Cc2ccccc2)C(=O)OC)C[C@H](C(=O)OCc2ccccc2)C1 [Compound 29, CHex(AmPhe-OMe)2(OBn)]
Gel test (EtOH): gel
Gel test (MeOH): gel
Gel test (olive oil): gel
Gel test (toluene): gel

SMILES: CC(C)C[C@H](NC(=O)[C@@H]1C[C@H](C(=O)O)C[C@H](C(=O)N[C@@H](CC(C)C)C(=O)Nc2ccc3ccccc3c2)C1)C(=O)Nc1ccc2ccccc2c1 [Compound 37, CHex(AmLeuAmβNA)2(COOH)]
Gel test (DMSO/H2O mixtures): gel
Gel test (H2O/MeOH mixtures): gel
Gel test (H2O/iPrOH mixtures): gel
Gel test (H2O/t-BuOH (TBA/H2O) mixtures): gel

SMILES: O=C(N[C@@H](Cc1ccccc1)C(=O)NC1CCCCC1)[C@H]1C[C@@H](C(=O)OCc2ccccc2)C[C@@H](C(=O)OCc2ccccc2)C1 [Compound 16, CHex(OBn)2(AmPheAmCHex)]
Gel test (EtOH): gel
Gel test (MeCN): gel
Gel test [1]: gel
Gel test (olive oil): gel

SMILES: CCCCCCCCCCNC(=O)[C@H](Cc1ccccc1)NC(=O)[C@@H]1C[C@H](C(=O)NCCOCCO)C[C@H](C(=O)NCCOCCO)C1 [Compound 20, CHex(AmPheAmDecyl)(AmEtOEtOH)2]
Gel test (EtOH): gel
Gel test (H2O, concentration not given): gel
Gel test [1]: gel
Gel test (toluene): gel

The remaining lines, values ahead:

Gel test (3 mg/mL in H2O): clear gel
SMILES: COc1ccc(NC(=O)[C@H](Cc2ccccc2)NC(=O)[C@@H]2C[C@H](C(=O)O)C[C@H](C(=O)O)C2)cc1 [Compound 9, CHex(AmPhe-AmPh-OMe)(COOH)2]

Gel test (2 mg/mL in H2O): clear gel
SMILES: CSCC[C@H](NC(=O)[C@@H]1C[C@H](C(=O)NCCO)C[C@H](C(=O)NCCO)C1)C(=O)Nc1ccc2ccccc2c1 [Compound 5, CHex(AmMet-AmβNA)(AmEtOH)2]

Gel test (EtOH): gel
Gel test [1]: gel
SMILES: CCCC[C@H](NC(=O)[C@@H]1C[C@H](C(=O)O)C[C@H](C(=O)N[C@@H](CCCC)C(=O)OC)C1)C(=O)OC [Compound 31, CHex(AmNleOMe)2(COOH)]

Gel test (DMSO): turbid gel
SMILES: CNC(=O)[C@H](Cc1ccccc1)NC(=O)[C@@H]1C[C@H](C(=O)N[C@@H](Cc2ccccc2)C(=O)NC)C[C@H](C(=O)OCc2ccccc2)C1 [Compound 33, CHex(AmPheAmMe)2(COOBn)]

Gel test (H2O, concentration not given): gel
SMILES: C[C@H](NC(=O)[C@@H]1C[C@H](C(=O)O)C[C@H](C(=O)O)C1)C(=O)Nc1ccc2ccccc2c1 [Compound 13, CHex(AmAlaAmβNA)(COOH)2]

Gel test (H2O, concentration not given): clear gel
Gel test (toluene): gel
SMILES: CCCCCCCCCCNC(=O)[C@H](Cc1ccccc1)NC(=O)[C@@H]1C[C@H](C(=O)O)C[C@H](C(=O)O)C1 [Compound 19, CHex(AmPheAmDecyl)(COOH)2]

Gel test (H2O, concentration not given): gel (thixotropic)
Gel test (H2O/PG mixtures): gel
Gel test (H2O/t-BuOH (TBA/H2O) mixtures): gel
Gel test (propylene glycol (PG)): gel
Gel test (t-BuOH): gel
SMILES: O=C(NCCOCCO)[C@@H]1C[C@H](C(=O)NCCOCCO)C[C@H](C(=O)N[C@@H](Cc2ccccc2)C(=O)NCCc2ccccc2)C1 [Compound 26, CHex(AmPheAmEtPh)(AmEtOEtOH)2]

Gel test (3 mg/mL in H2O): clear gel
SMILES: COc1ccc(NC(=O)[C@H](Cc2ccccc2)NC(=O)[C@@H]2C[C@H](C(=O)NCCOCCO)C[C@H](C(=O)NCCOCCO)C2)cc1 [Compound 10, CHex(AmPhe-AmPh-OMe)(AmEtOEtOH)2]

Gel test (3 mg/mL in H2O): slightly turbid gel
SMILES: O=C(O)[C@@H]1C[C@H](C(=O)O)C[C@H](C(=O)N[C@@H](Cc2ccccc2)C(=O)NCc2ccccc2)C1 [Compound 7, CHex(AmPhe-AmBn)(COOH)2]

Gel test (1 mg/mL in H2O): clear gel
Gel test (EtOH): gel
Gel test (MeCN): gel
Gel test (olive oil): gelly precipitate
SMILES: O=C(NCCOCCO)[C@@H]1C[C@H](C(=O)NCCOCCO)C[C@H](C(=O)N[C@@H](Cc2ccc(O)cc2)C(=O)Nc2ccc3ccccc3c2)C1 [Compound 24, CHex(AmTyrAmβNA)(AmEtOEtOH)2]

Aqueous gel formation by acidification (compound 22 heated in 1N NaOH (aq), cooled to RT, 2N HCl (aq) added): gel
SMILES: O=C(O)[C@@H]1C[C@H](C(=O)O)C[C@H](C(=O)N[C@@H](Cc2ccccc2)C(=O)N[C@@H](Cc2ccccc2)C(=O)O)C1 [Compound 23, CHex(AmPheAmPheOH)(COOH)2]

Gel test (1 mg/mL in H2O): clear gel (thixotropic)
Gel test (EtOH): gel
Gel test (H2O/PG mixtures): gel
Gel test (H2O/t-BuOH (TBA/H2O) mixtures): gel
Gel test (MeCN): gel
Gel test [1]: gel
Gelation of emulsion (hydrogel 2 mg/ml + olive oil 200 μL, vortexed five seconds): gelated emulsion
Gel test (olive oil): weak gel
Gel test (propylene glycol (PG)): gel
Gel test (t-BuOH): gel
SMILES: O=C(NCCOCCO)[C@@H]1C[C@H](C(=O)NCCOCCO)C[C@H](C(=O)N[C@@H](Cc2ccccc2)C(=O)NCc2ccccc2)C1 [Compound 8, CHex(AmPhe-AmBn)(AmEtOEtOtH)2]

Gel test (3 mg/mL in H2O): slightly crystalline gel
SMILES: O=C(O)[C@@H]1C[C@H](C(=O)O)C[C@H](C(=O)N[C@@H](Cc2ccccc2)C(=O)Nc2ccc3ccccc3c2)C1 [Compound 1, CHex(AmPhe-AmβNA)(COOH)2]

Gel test (1 mg/mL in H2O): clear gel
Gel test (3 mg/mL in MeOH): clear gel
SMILES: CSCC[C@H](NC(=O)[C@@H]1C[C@H](C(=O)NCCOCCO)C[C@H](C(=O)NCCOCCO)C1)C(=O)Nc1ccc2ccccc2c1 [Compound 4, CHex(AmMet-AmβNA)(AmEtOEtOH)2]

Gel test (H2O, concentration not given): gel
Gel test (toluene): gel
SMILES: CCCCCC(C)NC(=O)[C@H](Cc1ccccc1)NC(=O)[C@@H]1C[C@H](C(=O)O)C[C@H](C(=O)O)C1 (stereo partly drawn) [Compound 21, CHex(AmPheAm2-Heptyl)(COOH)2]

Gel test (toluene): gel
SMILES: COC(=O)[C@H](Cc1ccccc1)NC(=O)[C@H](Cc1ccccc1)NC(=O)[C@@H]1C[C@H](C(=O)O)C[C@H](C(=O)O)C1 [Compound 22, CHex(AmPheAmPheOMe)(COOH)2]

Gel test (DMSO/CH2Cl2 mixtures): gel
Gel test (DMSO/EtOH mixtures): gel
Gel test (DMSO/MeCN mixtures): gel
Gel test (DMSO/MeOH mixtures): gel
Gel test (DMSO/toluene mixtures): gel
Gel test (EtOH): gel
Gel test (MeCN): gel
SMILES: O=C(N[C@@H](CO)C(=O)Nc1ccc2ccccc2c1)[C@@H]1C[C@H](C(=O)N[C@@H](CO)C(=O)Nc2ccc3ccccc3c2)C[C@H](C(=O)OCc2ccccc2)C1 [Compound 35, CHex(AmSerAmβNA)2(COOBn)]

Gel test (3 mg/mL in H2O): slightly crystalline gel
SMILES: CSCC[C@H](NC(=O)[C@@H]1C[C@H](C(=O)O)C[C@H](C(=O)O)C1)C(=O)Nc1ccc2ccccc2c1 [Compound 3, CHex(AmMet-AmβNA)(COOH)2]
